As usually defined, the melting point is the temperature of the solid-liquid transition.

With `CC(=O)NC[C@H]1CN(c2ccc(/C=C(\Br)c3ccc(C(C)=O)s3)c(F)c2)C(=O)O1`, the melting point is 187 to 190 °C (dec.).

(Values after patent US20020115669A1 (published 2002).)
